Data published in US10689343B2, “Inhibitors of tryptophan 2,3-dioxygenase” (NETHERLANDS TRANSLATIONAL RESEARCH CENTER B.V., priority 2016, dated 2020).
Where “and” joins values, the source holds several entries; their conditions need not be identical. Identical values can stand only once.

Tests used:
[1] = biological target: T1, TDO in SW48 colorectal carcinoma cells (Homo sapiens, UniProt P48775); assay: Cell-based assay for TDO in SW48 colorectal carcinoma cells (NFK GreenScreen); details: 18 hours with L-tryptophan, read-out: IC50 on TDO in cells
T1 construct: Endogenous expression of TDO has been determined in a variety of cancer cell lines; host or cells: SW48 colorectal carcinoma cells
T1 sequence (P48775 whole entry): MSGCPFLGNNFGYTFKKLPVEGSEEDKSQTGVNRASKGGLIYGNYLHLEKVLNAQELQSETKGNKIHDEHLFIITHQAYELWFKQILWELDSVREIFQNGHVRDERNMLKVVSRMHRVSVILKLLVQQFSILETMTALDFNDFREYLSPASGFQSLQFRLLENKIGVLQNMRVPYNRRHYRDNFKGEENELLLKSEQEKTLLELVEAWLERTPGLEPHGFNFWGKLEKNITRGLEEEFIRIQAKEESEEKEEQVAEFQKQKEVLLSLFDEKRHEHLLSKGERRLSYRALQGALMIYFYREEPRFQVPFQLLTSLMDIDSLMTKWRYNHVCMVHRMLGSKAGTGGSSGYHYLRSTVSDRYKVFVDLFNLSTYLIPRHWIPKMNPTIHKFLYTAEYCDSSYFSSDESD
Method: The biological activity of TDO inhibitors can be measured by applying above detection methods to cells that are treated with test compound. Endogenous expression of TDO has been determined in a variety of cancer cell lines (Pilotte et al.; Seegers, et al.), or TDO can be expressed in cells that lack endogenous TDO by transfection of an expression vector containing TDO cDNA. […] A preferred assay is the cell-based NFK GreenScreen™ assay (Seegers et al, supra), which measures the cellular inhibitory activity of compounds on TDO. […] No. V9920). Cell-Based Assay for TDO The NFK GreenScreen™ assay technology was also used to determine the inhibitory activity of compounds on TDO in SW48 colorectal carcinoma cells (Seegers, N., et al., J. Biol. Screen. 19: 1266; 2014). […] Compounds were dissolved in DMSO and diluted in RPMI 1640. Final DMSO concentration in the assay was 0.4% (v/v). Eight thousand cells per well in 40 μl were seeded in a black 384-well tissue plate (cat. No. 781086; […] To determine NFK levels, 12 μl NFK Green™ (NTRC, Oss, The Netherlands) was added to each well, and the plate was sealed and incubated for 4 hours at 37° C. Fluorescence was measured on an EnVision multimode reader (Perkin Elmer, Waltham, Mass., USA).

Recombinant TDO = biological target: T2, Recombinant TDO (Homo sapiens, UniProt P48775); assay: Biochemical assay for TDO (NFK GreenScreen); details: 50 nM TDO, 200 μM L-tryptophan
T2 construct: Recombinant TDO (Seegers, N., et al.) and all other assay components were diluted in TDO reaction buffer
T2 sequence (P48775 whole entry): as above
In short: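 Recombinant human TDO (50 nM) preincubated with compound 60 min at room temperature in 100 mM NaH2PO4 pH 7.0, 0.02% Tween-20, with ascorbic acid. Reaction then run 15 min with 200 μM L-tryptophan (final), 0.3% DMSO. NFK product detected by NFK Green fluorescence after 3 h at 37° C; IC50 derived.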

CYP3A4 = CYP3A4 (Homo sapiens, UniProt P08684); assay: P450-Glo CYP3A4 luciferin isopropylacetal (Luc-IP) assay
CYP3A4, sequence (P08684 whole entry): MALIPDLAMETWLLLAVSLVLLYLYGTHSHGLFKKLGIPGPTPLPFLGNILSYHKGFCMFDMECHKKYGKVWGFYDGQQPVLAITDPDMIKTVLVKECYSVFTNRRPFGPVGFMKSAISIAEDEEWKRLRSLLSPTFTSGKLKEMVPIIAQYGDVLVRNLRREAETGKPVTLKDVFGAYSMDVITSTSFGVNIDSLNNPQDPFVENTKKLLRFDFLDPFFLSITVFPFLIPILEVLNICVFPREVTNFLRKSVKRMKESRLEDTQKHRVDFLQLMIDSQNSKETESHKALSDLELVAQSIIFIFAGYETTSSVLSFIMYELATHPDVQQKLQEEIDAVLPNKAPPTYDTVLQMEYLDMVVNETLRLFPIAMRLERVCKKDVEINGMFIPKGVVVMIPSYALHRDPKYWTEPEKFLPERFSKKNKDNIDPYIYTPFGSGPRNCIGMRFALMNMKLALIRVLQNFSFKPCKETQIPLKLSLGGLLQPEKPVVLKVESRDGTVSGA

CYP2D6 = CYP2D6 (Homo sapiens, UniProt P10635); assay: P450-Glo CYP2D6 Luc-IP assay
CYP2D6, sequence (P10635 whole entry): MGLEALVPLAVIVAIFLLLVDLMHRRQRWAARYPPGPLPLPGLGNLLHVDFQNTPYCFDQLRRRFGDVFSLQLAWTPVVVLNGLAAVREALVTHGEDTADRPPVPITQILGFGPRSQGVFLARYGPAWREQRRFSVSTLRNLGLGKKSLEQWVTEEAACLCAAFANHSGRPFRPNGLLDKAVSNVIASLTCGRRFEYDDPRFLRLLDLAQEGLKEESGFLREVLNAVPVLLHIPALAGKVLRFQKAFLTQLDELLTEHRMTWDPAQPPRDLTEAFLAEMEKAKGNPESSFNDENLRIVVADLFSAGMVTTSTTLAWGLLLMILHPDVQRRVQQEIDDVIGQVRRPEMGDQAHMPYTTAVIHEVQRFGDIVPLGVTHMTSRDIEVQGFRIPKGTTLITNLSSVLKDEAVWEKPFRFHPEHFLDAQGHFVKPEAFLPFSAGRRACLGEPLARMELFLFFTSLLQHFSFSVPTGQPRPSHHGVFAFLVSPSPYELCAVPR

| IC50 [1] | IC50 (Recombinant TDO) | IC50 (CYP3A4) | IC50 (CYP2D6) | Structure (SMILES) |
| --- | --- | --- | --- | --- |
| ≤ 200 nM | < 1000 nM | > 10000 nM | > 10000 nM | CN(C)CCCNC(=O)c1ccc(-c2c[nH]c3cc(F)ccc23)cc1Cl [Example 52, 2-Chloro-N-[3-(dimethylamino)propyl]-4-(6-fluoro-1H-indol-3-yl)benzamide] |
| ≤ 500 nM and 200 to 500 nM | < 1000 nM | > 10000 nM | > 10000 nM | O=C(NCC(F)(F)F)c1ccc(-c2c[nH]c3cc(F)ccc23)cc1Cl [Example 53, 2-Chloro-4-(6-fluoro-1H-indol-3-yl)-N-(2,2,2-trifluoroethyl)benzamide] |
| ≤ 200 nM | < 1000 nM | > 10000 nM | > 10000 nM | C[C@@H](CO)NC(=O)c1ccc(-c2c[nH]c3cc(F)ccc23)cc1Cl [Example 54, 2-Chloro-4-(6-fluoro-1H-indol-3-yl)-N-[(1S)-2-hydroxy-1-methyl-ethyl]benzamide] |
| ≤ 200 nM | < 1000 nM | 5000 to 10000 nM | > 10000 nM | O=C(N[C@H]1CCCNC1)c1ccc(-c2c[nH]c3cc(F)ccc23)cc1Cl [Example 55, 2-Chloro-4-(6-fluoro-1H-indol-3-yl)-N-[(3S)-3-piperidyl]benzamide] |
| ≤ 500 nM and 200 to 500 nM | < 1000 nM | > 10000 nM | > 10000 nM | C[C@H](CO)NC(=O)c1c(F)cc(-c2c[nH]c3cc(F)ccc23)cc1F [Example 56, 2,6-Difluoro-4-(6-fluoro-1H-indol-3-yl)-N-[(1R)-2-hydroxy-1-methyl-ethyl]benzamide] |
| ≤ 500 nM and 200 to 500 nM | < 1000 nM | 5000 to 10000 nM | 5000 to 10000 nM | O=C(NCC(F)(F)F)c1c(F)cc(-c2c[nH]c3cc(F)ccc23)cc1F [Example 57, 2,6-Difluoro-4-(6-fluoro-1H-indol-3-yl)-N-(2,2,2-trifluoroethyl)benzamide] |
| ≤ 200 nM | < 1000 nM | > 10000 nM | > 10000 nM | O=C(N[C@H]1CCCNC1)c1c(F)cc(-c2c[nH]c3cc(F)ccc23)cc1F [Example 58, 2,6-Difluoro-4-(6-fluoro-1H-indol-3-yl)-N-[(3S)-3-piperidyl]benzamide] |
| ≤ 500 nM and 200 to 500 nM | < 1000 nM | > 10000 nM | > 10000 nM | CN(C)CCCNC(=O)c1c(F)cc(-c2c[nH]c3cc(F)ccc23)cc1F [Example 59, N-[3-(dimethylamino)propyl]-2,6-difluoro-4-(6-fluoro-1H-indol-3-yl)benzamide] |
| ≤ 500 nM and 200 to 500 nM | < 1000 nM | > 10000 nM | > 10000 nM | C[C@@H](CO)NC(=O)c1c(F)cc(-c2c[nH]c3cc(F)ccc23)cc1F [Example 60, 2,6-Difluoro-4-(6-fluoro-1H-indol-3-yl)-N-[(1S)-2-hydroxy-1-methyl-ethyl]benzamide] |
| ≤ 500 nM and 200 to 500 nM | < 1000 nM | 5000 to 10000 nM | > 10000 nM | N[C@H]1CC[C@@H](NC(=O)c2ccc(-c3c[nH]c4cc(F)ccc34)cc2)CC1 [Example 61, N-(cis-4-aminocyclohexyl)-4-(6-fluoro-1H-indol-3-yl)benzamide] |
| ≤ 500 nM and 200 to 500 nM | < 1000 nM | 5000 to 10000 nM | > 10000 nM | O=C(NCC1(O)CCC1)c1ccc(-c2c[nH]c3cc(F)ccc23)cc1 [Example 62, 4-(6-Fluoro-1H-indol-3-yl)-N-[(1-hydroxycyclobutyl)methyl]benzamide] |
| ≤ 500 nM and 200 to 500 nM | < 1000 nM | > 10000 nM | > 10000 nM | CN1CCC(O)(CNC(=O)c2ccc(-c3c[nH]c4cc(F)ccc34)cc2)CC1 [Example 63, 4-(6-Fluoro-1H-indol-3-yl)-N-[(4-hydroxy-1-methyl-4-piperidyl)methyl]benzamide] |
| ≤ 500 nM and 200 to 500 nM | < 1000 nM | > 10000 nM | > 10000 nM | O=C(NC1[C@H]2COC[C@@H]12)c1ccc(-c2c[nH]c3cc(F)ccc23)cc1 (stereo partly drawn) [Example 64, 4-(6-Fluoro-1H-indol-3-yl)-N-[(1R,5S)-3-oxabicyclo[3.1.0]hexan-6-yl]benzamide] |
| ≤ 500 nM and 200 to 500 nM | < 1000 nM | 5000 to 10000 nM | > 10000 nM | O=C(NOC[C@@H](O)CO)c1ccc(-c2c[nH]c3cc(F)ccc23)cc1 [Example 66, N-[(2S)-2,3-dihydroxypropoxy]-4-(6-fluoro-1H-indol-3-yl)benzamide] |
| ≤ 200 nM | < 1000 nM | 5000 to 10000 nM | > 10000 nM | CN1CCCC(NC(=O)c2ccc(-c3c[nH]c4cc(F)ccc34)cc2Cl)C1 (stereo not shown) [Example 68, 2-Chloro-4-(6-fluoro-1H-indol-3-yl)-N-(1-methyl-3-piperidyl)benzamide] |
| ≤ 200 nM | < 1000 nM | > 10000 nM | > 10000 nM | CN1CCC(NC(=O)c2ccc(-c3c[nH]c4cc(F)ccc34)cc2Cl)CC1 [Example 69, 2-Chloro-4-(6-fluoro-1H-indol-3-yl)-N-(1-methyl-4-piperidyl)benzamide] |
| ≤ 200 nM | < 1000 nM | 5000 to 10000 nM | > 10000 nM | O=C(NCCN1CCCC1)c1ccc(-c2c[nH]c3cc(F)ccc23)cc1Cl [Example 70, 2-Chloro-4-(6-fluoro-1H-indol-3-yl)-N-(2-pyrrolidin-1-ylethyl)benzamide] |
| ≤ 200 nM | < 1000 nM | 5000 to 10000 nM | > 10000 nM | CC(N)CNC(=O)c1ccc(-c2c[nH]c3cc(F)ccc23)cc1Cl (stereo not shown) [Example 71, N-(2-aminopropyl)-2-chloro-4-(6-fluoro-1H-indol-3-yl)benzamide] |
| ≤ 200 nM | < 1000 nM | 5000 to 10000 nM | 5000 to 10000 nM | CN1CCN(CCCNC(=O)c2ccc(-c3c[nH]c4cc(F)ccc34)cc2Cl)CC1 [Example 72, 2-Chloro-4-(6-fluoro-1H-indol-3-yl)-N-[3-(4-methylpiperazin-1-yl)propyl]benzamide] |
| ≤ 200 nM | < 1000 nM | > 10000 nM | > 10000 nM | CCN(CC)CC(C)NC(=O)c1ccc(-c2c[nH]c3cc(F)ccc23)cc1Cl (stereo not shown) [Example 73, 2-Chloro-N-[2-(diethylamino)-1-methyl-ethyl]-4-(6-fluoro-1H-indol-3-yl)benzamide] |
| ≤ 200 nM | < 1000 nM | 5000 to 10000 nM | > 10000 nM | O=C(N[C@@H]1CCNC[C@@H]1F)c1ccc(-c2c[nH]c3cc(F)ccc23)cc1 [Example 74, 4-(6-Fluoro-1H-indol-3-yl)-N-[(3S,4R)-3-fluoro-4-piperidyl]benzamide] |
| ≤ 200 nM | < 1000 nM | 5000 to 10000 nM | > 10000 nM | COc1cc(-c2c[nH]c3cc(F)ccc23)ccc1C(=O)N[C@H]1CCCNC1 [Example 75, 4-(6-Fluoro-1H-indol-3-yl)-2-methoxy-N-[(3S)-3-piperidyl]benzamide] |
| ≤ 200 nM | < 1000 nM | > 10000 nM | > 10000 nM | O=C(NCC1(F)CCNCC1)c1ccc(-c2c[nH]c3cc(F)ccc23)cc1 [Example 76, 4-(6-Fluoro-1H-indol-3-yl)-N-[(4-fluoro-4-piperidyl)methyl]benzamide] |
| ≤ 200 nM | < 1000 nM | > 10000 nM | > 10000 nM | O=C(NCCN1CCCC1)c1ccc(-c2c[nH]c3cc(F)ccc23)cc1 [Example 77, 4-(6-Fluoro-1H-indol-3-yl)-N-(2-pyrrolidin-1-ylethyl)benzamide] |
| ≤ 200 nM | < 1000 nM | > 10000 nM | > 10000 nM | CN(C)CC(O)CNC(=O)c1ccc(-c2c[nH]c3cc(F)ccc23)cc1 (stereo not shown) [Example 78, N-[3-(dimethylamino)-2-hydroxy-propyl]-4-(6-fluoro-1H-indol-3-yl)benzamide] |
| ≤ 200 nM | < 1000 nM | > 10000 nM | > 10000 nM | CCN(CC)CC(C)NC(=O)c1ccc(-c2c[nH]c3cc(F)ccc23)cc1OC (stereo not shown) [Example 79, N-[2-(diethylamino)-1-methyl-ethyl]-4-(6-fluoro-1H-indol-3-yl)-2-methoxy-benzamide] |
| ≤ 200 nM | 1000 to 5000 nM | > 10000 nM | > 10000 nM | CS(=O)(=O)CC(=O)Nc1ccc(-c2c[nH]c3cc(F)ccc23)cc1 [Example 80, N-[4-(6-fluoro-1H-indol-3-yl)phenyl]-2-methylsulfonyl-acetamide] |
| ≤ 200 nM | < 1000 nM | 5000 to 10000 nM | > 10000 nM | CC(CN(C)C)NC(=O)c1ccc(-c2c[nH]c3cc(F)ccc23)cc1Cl (stereo not shown) [Example 82, 2-Chloro-N-[2-(dimethylamino)-1-methyl-ethyl]-4-(6-fluoro-1H-indol-3-yl)benzamide] |
